# Measured values taken from patent EP2193713A1, “Method for fighting animal pests without damaging pollinating insects” (Bayer CropScience AG, priority 2008, dated 2010).
# Like-named read-outs stand apart in the source and are kept apart here.
# Assays:
# Format in all cases: in vivo
# Apis mellifera [1] = experiment: Tunnel test / spray application / bees: brood development (share of comb cells); settings: for Anteil an Zellen: Larven / Anteil an Zellen: Leer / Anteil an Zellen: Nektar / Anteil an Zellen: Pollen / Anteil an Zellen: Puppen / Anteil an Zellen: Eier: 150 g a.s./ha; for Brutentwicklung: result in words, 75 und 150 g a.s./ha
# Description: (§1) Der Test wurde gemäß EPPO (European Plant Protection Organisation) Leitlinie 170 wie folgt durchgeführt:
# Über alle Waben eines Bienenstocks wird der jeweilige Anteil an Zellen bestimmt, der durch Pollen, Nektar, Eier, Larven oder Puppen belegt ist bzw. leer ist. […]
# Apis mellifera [2] = settings: for Zahl toter Arbeiterbienen: 20 mg a.s./pl.
# Description: Die Mortalität von Arbeiterbienen vor dem Bienenstock wird mittels einer Falle für tote Bienen (dead bee trap) bestimmt. Die Falle besteht aus Maschendraht und ist vor dem Bienenstock angebracht. Einzelne, lebende Bienen können die Maschen des Drahts passieren, der Transport toter Bienen durch die Maschen ist nicht möglich, weswegen tote Bienen sich in der Falle ansammeln. Tabelle 1 (siehe auch Figur 1)
# Bombus terrestris [3] = experiment: Tent test / drench application / bumblebees: flight activity at the hive; settings: for Flugaktivität am Stock, Zahl der Hummeln / 10 min: 20 mg a.s./pl.
# Description: (§2) Der Versuch wurde wie folgt durchgeführt:
# Die Zahl der Hummeln, die im Zeitraum von 10 min in den Stock geflogen sind oder diesen verlassen haben wurde bestimmt. Tabelle 7 (siehe auch Figur 7)
# Bombus terrestris [4] = experiment: Tent test / drench application / bumblebees: pollination activity on tomato; settings: for Zahl der Blüten: markierte Blüten / Zahl der Blüten: offene Blüten: 20 mg a.s./pl.
# Description: as §2
# Bei Tomaten kommt es durch den Besuch von Hummeln zu einer Farbveränderung der Staubgefäße (markierte Blüten). Es wurde die Zahl offener und markierter Blüten bestimmt. Tabelle 8 (siehe auch Figur 8)
# Apis mellifera [5] = experiment: Tunnel test / spray application / bees: foraging activity
# Description: as §1
# Während einer Minute werden in einem abgegrenzten Bereich von 2 x 1 m^2 die Bienen gezählt, die auf Blüten absitzen. Tabelle 3 (siehe auch Figur 3)
# [6] = result in words, 20 mg a.s. / Pflanze, 2 applications (Tag 0 und Tag 14)
compound,measurement,setting,value
"O=C1C=C(N(Cc2ccc(Cl)nc2)CC(F)F)CO1 [I-5, 4-{[(6-Chlorpyrid-3-yl)methyl](2,2-difluorethyl)amino}furan-2(5H)-on]",Anteil an Zellen: Larven,Apis mellifera [1]; 6 Tage nach Applikation,"6,1%"
same,Anteil an Zellen: Leer,Apis mellifera [1]; 6 Tage nach Applikation,"29,4%"
same,Anteil an Zellen: Nektar,Apis mellifera [1]; 6 Tage nach Applikation,"14,4%"
same,Anteil an Zellen: Pollen,Apis mellifera [1]; 6 Tage nach Applikation,"3,9%"
same,Anteil an Zellen: Puppen,Apis mellifera [1]; 6 Tage nach Applikation,"31,1%"
same,Anteil an Zellen: Eier,Apis mellifera [1]; 14 Tage nach Applikation,"17,8%"
same,Anteil an Zellen: Larven,Apis mellifera [1]; 14 Tage nach Applikation,"16,7%"
same,Anteil an Zellen: Leer,Apis mellifera [1]; 14 Tage nach Applikation,"34,4%"
same,Anteil an Zellen: Nektar,Apis mellifera [1]; 14 Tage nach Applikation,"12,2%"
same,Anteil an Zellen: Pollen,Apis mellifera [1]; 14 Tage nach Applikation,"4,2%"
same,Anteil an Zellen: Puppen,Apis mellifera [1]; 14 Tage nach Applikation,"14,7%"
same,Anteil an Zellen: Eier,Apis mellifera [1]; 27 Tage nach Applikation,"15,3%"
same,Anteil an Zellen: Larven,Apis mellifera [1]; 27 Tage nach Applikation,"7,2%"
same,Anteil an Zellen: Leer,Apis mellifera [1]; 27 Tage nach Applikation,"21,9%"
same,Anteil an Zellen: Nektar,Apis mellifera [1]; 27 Tage nach Applikation,"16,4%"
same,Anteil an Zellen: Pollen,Apis mellifera [1]; 27 Tage nach Applikation,"4,2%"
same,Anteil an Zellen: Puppen,Apis mellifera [1]; 27 Tage nach Applikation,35%
same,Brutentwicklung,Apis mellifera [1]; 6 Tage nach Applikation,keine Änderung
same,Brutentwicklung,Apis mellifera [1]; 14 Tage nach Applikation,keine Änderung
same,Brutentwicklung,Apis mellifera [1]; 27 Tage nach Applikation,keine Änderung
same,Zahl toter Arbeiterbienen,Apis mellifera [2]; 6 DAA a (9:30 Uhr),8
same,Zahl toter Arbeiterbienen,Apis mellifera [2]; 6 DAA b (14:30 Uhr),2
same,Zahl toter Arbeiterbienen,Apis mellifera [2]; 7 DAA,8
same,Zahl toter Arbeiterbienen,Apis mellifera [2]; 8 DAA,0
same,Zahl toter Arbeiterbienen,Apis mellifera [2]; 9 DAA,0
same,Zahl toter Arbeiterbienen,Apis mellifera [2]; 10 DAA,7
same,Zahl toter Arbeiterbienen,Apis mellifera [2]; 11 DAA,2
same,Zahl toter Arbeiterbienen,Apis mellifera [2]; 14 DAA,1
same,Zahl toter Arbeiterbienen,Apis mellifera [2]; 16 DAA,1
same,Zahl toter Arbeiterbienen,Apis mellifera [2]; 18 DAA,2
same,Mortalität von Arbeiterbienen vor dem Bienenstock,"Apis mellifera [2]; result in words, tent test, drench, I-5 20 mg a.s. / Pflanze, Thiamethoxam 10 mg a.s. / Pflanze",keine Mortalität
same,"Flugaktivität am Stock, Zahl der Hummeln / 10 min",Bombus terrestris [3]; 0 DAA,9 Hummeln / 10 min
same,"Flugaktivität am Stock, Zahl der Hummeln / 10 min",Bombus terrestris [3]; 6 DAA after first application,11 Hummeln / 10 min
same,"Flugaktivität am Stock, Zahl der Hummeln / 10 min",Bombus terrestris [3]; 8 DAA after first application,15 Hummeln / 10 min
same,"Flugaktivität am Stock, Zahl der Hummeln / 10 min",Bombus terrestris [3]; 13 DAA after first application,11 Hummeln / 10 min
same,"Flugaktivität am Stock, Zahl der Hummeln / 10 min",Bombus terrestris [3]; 20 DAA after first application,12 Hummeln / 10 min
same,"Flugaktivität am Stock, Zahl der Hummeln / 10 min",Bombus terrestris [3]; 23 DAA after first application,14 Hummeln / 10 min
same,"Flugaktivität am Stock, Zahl der Hummeln / 10 min",Bombus terrestris [3]; 27 DAA after first application,11 Hummeln / 10 min
same,"Flugaktivität am Stock, Zahl der Hummeln / 10 min",Bombus terrestris [3]; 34 DAA after first application,6 Hummeln / 10 min
same,"Flugaktivität am Stock, Zahl der Hummeln / 10 min",Bombus terrestris [3]; -1 DAA (before first application),13 Hummeln / 10 min
same,Flugaktivität der Hummeln,Bombus terrestris [3]; [6],keine Änderung
same,Zahl der Blüten: markierte Blüten,Bombus terrestris [4]; DAA 13 after first application,"59,4"
same,Zahl der Blüten: offene Blüten,Bombus terrestris [4]; DAA 13 after first application,"67,3"
same,Zahl der Blüten: markierte Blüten,Bombus terrestris [4]; DAA 22 after first application,"53,7"
same,Zahl der Blüten: offene Blüten,Bombus terrestris [4]; DAA 22 after first application,"59,3"
same,Bestäubungsaktivität der Hummeln,Bombus terrestris [4]; [6],keine Änderung
same,"Aktivität der Nahrungssuche, Zahl der Bienen / min / m^2","Apis mellifera [5]; 75 g a.s./ha, 0 DAA a (09:30 Uhr)","25,5 Bienen / min / m^2"
same,"Aktivität der Nahrungssuche, Zahl der Bienen / min / m^2","Apis mellifera [5]; 75 g a.s./ha, 0 DAA c (14:15 Uhr)",41 Bienen / min / m^2
same,"Aktivität der Nahrungssuche, Zahl der Bienen / min / m^2","Apis mellifera [5]; 75 g a.s./ha, 0 DAA e (17:15 Uhr)","42,7 Bienen / min / m^2"
same,"Aktivität der Nahrungssuche, Zahl der Bienen / min / m^2","Apis mellifera [5]; 75 g a.s./ha, 1 DAA b (15:30 Uhr)","18,8 Bienen / min / m^2"
same,"Aktivität der Nahrungssuche, Zahl der Bienen / min / m^2","Apis mellifera [5]; 75 g a.s./ha, 2 DAA","33,3 Bienen / min / m^2"
same,"Aktivität der Nahrungssuche, Zahl der Bienen / min / m^2","Apis mellifera [5]; 75 g a.s./ha, 3 DAA","40,3 Bienen / min / m^2"
same,"Aktivität der Nahrungssuche, Zahl der Bienen / min / m^2","Apis mellifera [5]; 75 g a.s./ha, 6 DAA","37,8 Bienen / min / m^2"
same,"Aktivität der Nahrungssuche, Zahl der Bienen / min / m^2","Apis mellifera [5]; 75 g a.s./ha, -1 DAA (before application)","27,3 Bienen / min / m^2"
same,"Aktivität der Nahrungssuche, Zahl der Bienen / min / m^2","Apis mellifera [5]; 75 g a.s./ha, -2 DAA (before application)","34,8 Bienen / min / m^2"
same,"Aktivität der Nahrungssuche, Zahl der Bienen / min / m^2","Apis mellifera [5]; 75 g a.s./ha, -3 DAA (before application)","26,5 Bienen / min / m^2"
same,"Aktivität der Nahrungssuche, Zahl der Bienen / min / m^2","Apis mellifera [5]; 150 g a.s./ha, 0 DAA a (09:30 Uhr)","28,3 Bienen / min / m^2"
same,"Aktivität der Nahrungssuche, Zahl der Bienen / min / m^2","Apis mellifera [5]; 150 g a.s./ha, 0 DAA c (14:15 Uhr)","40,2 Bienen / min / m^2"
same,"Aktivität der Nahrungssuche, Zahl der Bienen / min / m^2","Apis mellifera [5]; 150 g a.s./ha, 0 DAA e (17:15 Uhr)",39 Bienen / min / m^2
same,"Aktivität der Nahrungssuche, Zahl der Bienen / min / m^2","Apis mellifera [5]; 150 g a.s./ha, 1 DAA b (15:30 Uhr)","19,2 Bienen / min / m^2"
same,"Aktivität der Nahrungssuche, Zahl der Bienen / min / m^2","Apis mellifera [5]; 150 g a.s./ha, 2 DAA","35,7 Bienen / min / m^2"
same,"Aktivität der Nahrungssuche, Zahl der Bienen / min / m^2","Apis mellifera [5]; 150 g a.s./ha, 3 DAA","39,3 Bienen / min / m^2"
same,"Aktivität der Nahrungssuche, Zahl der Bienen / min / m^2","Apis mellifera [5]; 150 g a.s./ha, 6 DAA","37,5 Bienen / min / m^2"
same,"Aktivität der Nahrungssuche, Zahl der Bienen / min / m^2","Apis mellifera [5]; 150 g a.s./ha, -1 DAA (before application)","26,3 Bienen / min / m^2"
same,"Aktivität der Nahrungssuche, Zahl der Bienen / min / m^2","Apis mellifera [5]; 150 g a.s./ha, -2 DAA (before application)","34,2 Bienen / min / m^2"
same,"Aktivität der Nahrungssuche, Zahl der Bienen / min / m^2","Apis mellifera [5]; 150 g a.s./ha, -3 DAA (before application)",27 Bienen / min / m^2
same,Aktivität der Nahrungssuche,"Apis mellifera [5]; result in words, tunnel test, spray, I-5 75 und 150 g a.s./ha, Thiamethoxam 50 g a.s./ha directly after application",keine Änderung
